# Assay results taken from PubChem BioAssay AID2060512 (Molecular Pharmacology Branch, DTP, NCI, 2025).
# Tested on: 186277-243-T-J2-PDC complex spheroid viability
# Test: Anticancer human tumor 186277-243-T-J2-PDC patient-derived colon adenocarcinoma cell line growth inhibition [GQUAD]
# Conditions: for IC50: curve of first compound; for viability, T/C: stronger effect = lower value
# Procedure, shortened: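 Viability of tumor cells grown as complex spheroids with endothelial and stromal cells, exposed to drug combinations. Top concentration at or near clinical Cmax (else 10 microM), diluted in half-log increments.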
# [1] = second compound 0.0316 µM, first compound 0.0316 µM
# [2] = second compound 0.0316 µM, first compound 0.1 µM
# [3] = second compound 0.0316 µM, first compound 0.316 µM
# [4] = second compound 0.0316 µM, first compound 1 µM
# [5] = second compound 0.0316 µM, first compound 3.16 µM
# [6] = second compound 0.0316 µM, first compound 10 µM
# [7] = second compound 0.1 µM, first compound 0.0316 µM
# [8] = second compound 0.1 µM, first compound 0.1 µM
# [9] = second compound 0.1 µM, first compound 0.316 µM
# [10] = second compound 0.1 µM, first compound 1 µM
# [11] = second compound 0.1 µM, first compound 3.16 µM
# [12] = second compound 0.1 µM, first compound 10 µM
# [13] = second compound 0.316 µM, first compound 0.0316 µM
# [14] = second compound 0.316 µM, first compound 0.1 µM
# [15] = second compound 0.316 µM, first compound 0.316 µM
# [16] = second compound 0.316 µM, first compound 1 µM
# [17] = second compound 0.316 µM, first compound 3.16 µM
# [18] = second compound 0.316 µM, first compound 10 µM
# [19] = second compound 1 µM, first compound 0.0316 µM
# [20] = second compound 1 µM, first compound 0.1 µM
# [21] = second compound 1 µM, first compound 0.316 µM
# [22] = second compound 1 µM, first compound 1 µM
# [23] = second compound 1 µM, first compound 3.16 µM
# [24] = second compound 1 µM, first compound 10 µM
# [25] = second compound 3.16 µM, first compound 0.0316 µM
# [26] = second compound 3.16 µM, first compound 0.1 µM
# [27] = second compound 3.16 µM, first compound 0.316 µM
# [28] = second compound 3.16 µM, first compound 1 µM
# [29] = second compound 3.16 µM, first compound 3.16 µM
# [30] = second compound 3.16 µM, first compound 10 µM
# [31] = second compound 10 µM, first compound 0.0316 µM
# [32] = second compound 10 µM, first compound 0.1 µM
# [33] = second compound 10 µM, first compound 0.316 µM
# [34] = second compound 10 µM, first compound 1 µM
# [35] = second compound 10 µM, first compound 3.16 µM
# [36] = second compound 10 µM, first compound 10 µM
# 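For viability, T/C in this document: 100% = DMSO vehicle control viability.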
structure (smiles),measurement,setting,value
CC(=O)O[C@H]1C(=O)[C@@]2(C)[C@H]([C@H](OC(=O)c3ccccc3)[C@]3(O)C[C@H](OC(=O)[C@H](O)[C@@H](NC(=O)c4ccccc4)c4ccccc4)C(C)=C1C3(C)C)[C@]1(OC(C)=O)CO[C@@H]1C[C@@H]2O + CN(C)c1ccc(Nc2c3ccc(NC(=O)CCN4CCCC4)cc3nc3cc(NC(=O)CCN4CCCC4)ccc23)cc1,IC50,second compound 0.0316 µM,< 31.6 nM
same,IC50,second compound 0.1 µM,< 31.6 nM
same,IC50,second compound 0.316 µM,< 31.6 nM
same,IC50,second compound 1 µM,< 31.6 nM
same,IC50,second compound 3.16 µM,< 31.6 nM
same,IC50,second compound 10 µM,< 31.6 nM
same,"viability, T/C",[1],19.8%
same,"viability, T/C",[2],6.1%
same,"viability, T/C",[3],5.38%
same,"viability, T/C",[4],3.55%
same,"viability, T/C",[5],3.54%
same,"viability, T/C",[6],3.9%
same,"viability, T/C",[7],18.9%
same,"viability, T/C",[8],7.57%
same,"viability, T/C",[9],4.53%
same,"viability, T/C",[10],3.24%
same,"viability, T/C",[11],4.81%
same,"viability, T/C",[12],4.04%
same,"viability, T/C",[13],20.1%
same,"viability, T/C",[14],7.12%
same,"viability, T/C",[15],4.2%
same,"viability, T/C",[16],4.04%
same,"viability, T/C",[17],4.15%
same,"viability, T/C",[18],3.98%
same,"viability, T/C",[19],11.8%
same,"viability, T/C",[20],7.8%
same,"viability, T/C",[21],5.59%
same,"viability, T/C",[22],3.93%
same,"viability, T/C",[23],4.16%
same,"viability, T/C",[24],4.31%
same,"viability, T/C",[25],19.9%
same,"viability, T/C",[26],6.16%
same,"viability, T/C",[27],3.9%
same,"viability, T/C",[28],4.93%
same,"viability, T/C",[29],4.08%
same,"viability, T/C",[30],4.24%
same,"viability, T/C",[31],19.5%
same,"viability, T/C",[32],6.64%
same,"viability, T/C",[33],3.63%
same,"viability, T/C",[34],3.44%
same,"viability, T/C",[35],2.96%
same,"viability, T/C",[36],2.41%
C=CC(=O)N1CCN(c2nc(=O)n(-c3c(C)ccnc3C(C)C)c3nc(-c4c(O)cccc4F)c(F)cc23)C(C)C1 (stereo not given) + Cc1cnc(CNC(=O)c2c(=O)c3ccc(N4CCCN(C)CC4)nc3n3c2sc2ccccc23)cn1,IC50,second compound 0.0316 µM,> 10000 nM
same,IC50,second compound 0.1 µM,> 10000 nM
same,IC50,second compound 0.316 µM,> 10000 nM
same,IC50,second compound 1 µM,> 10000 nM
same,IC50,second compound 3.16 µM,< 31.6 nM
same,IC50,second compound 10 µM,> 10000 nM
same,"viability, T/C",[1],89.2%
same,"viability, T/C",[2],106%
same,"viability, T/C",[3],105%
same,"viability, T/C",[4],94.1%
same,"viability, T/C",[5],109%
same,"viability, T/C",[6],88.6%
same,"viability, T/C",[7],84.6%
same,"viability, T/C",[8],91.3%
same,"viability, T/C",[9],99%
same,"viability, T/C",[10],83.7%
same,"viability, T/C",[11],96.1%
same,"viability, T/C",[12],76.1%
same,"viability, T/C",[13],81.5%
same,"viability, T/C",[14],58.7%
same,"viability, T/C",[15],75.7%
same,"viability, T/C",[16],75.3%
same,"viability, T/C",[17],75.8%
same,"viability, T/C",[18],66.4%
same,"viability, T/C",[19],59.9%
same,"viability, T/C",[20],62%
same,"viability, T/C",[21],65.6%
same,"viability, T/C",[22],66.7%
same,"viability, T/C",[23],68.4%
same,"viability, T/C",[24],66.1%
same,"viability, T/C",[25],50.3%
same,"viability, T/C",[26],47.4%
same,"viability, T/C",[27],52.4%
same,"viability, T/C",[28],53.7%
same,"viability, T/C",[29],62.8%
same,"viability, T/C",[30],46%
same,"viability, T/C",[31],53.2%
same,"viability, T/C",[32],46.5%
same,"viability, T/C",[33],49.3%
same,"viability, T/C",[34],56.2%
same,"viability, T/C",[35],61.3%
same,"viability, T/C",[36],47.6%
C#Cc1c(F)ccc2cc(O)cc(-c3ncc4c(N5CC6CCC(C5)N6)nc(OCC56CCCN5CC(F)C6)nc4c3F)c12 (stereo not given) + CN(C)c1ccc(Nc2c3ccc(NC(=O)CCN4CCCC4)cc3nc3cc(NC(=O)CCN4CCCC4)ccc23)cc1,IC50,second compound 0.0316 µM,89.9 nM
same,IC50,second compound 0.1 µM,83.6 nM
same,IC50,second compound 0.316 µM,99.7 nM
same,IC50,second compound 1 µM,84.2 nM
same,IC50,second compound 3.16 µM,135 nM
same,IC50,second compound 10 µM,77 nM
same,"viability, T/C",[1],82%
same,"viability, T/C",[2],47.4%
same,"viability, T/C",[3],21.6%
same,"viability, T/C",[4],16.9%
same,"viability, T/C",[5],6.89%
same,"viability, T/C",[6],7.82%
same,"viability, T/C",[7],74.2%
same,"viability, T/C",[8],45.7%
same,"viability, T/C",[9],18.7%
same,"viability, T/C",[10],11.1%
same,"viability, T/C",[11],6.45%
same,"viability, T/C",[12],7.02%
same,"viability, T/C",[13],77%
same,"viability, T/C",[14],50.4%
same,"viability, T/C",[15],19.8%
same,"viability, T/C",[16],14.4%
same,"viability, T/C",[17],8.31%
same,"viability, T/C",[18],7.51%
same,"viability, T/C",[19],74.6%
same,"viability, T/C",[20],46.6%
same,"viability, T/C",[21],21.3%
same,"viability, T/C",[22],16.1%
same,"viability, T/C",[23],14.3%
same,"viability, T/C",[24],6.27%
same,"viability, T/C",[25],73.9%
same,"viability, T/C",[26],59.6%
same,"viability, T/C",[27],22.9%
same,"viability, T/C",[28],8.92%
same,"viability, T/C",[29],8.54%
same,"viability, T/C",[30],5.1%
same,"viability, T/C",[31],74.3%
same,"viability, T/C",[32],42.1%
same,"viability, T/C",[33],24.2%
same,"viability, T/C",[34],12.5%
same,"viability, T/C",[35],6.96%
same,"viability, T/C",[36],1.49%
COc1ccc([C@@H](O)c2cc(-c3ncnc4cc(N5CCOCC5)ccc34)c(F)cc2Cl)nn1 + Cc1cnc(CNC(=O)c2c(=O)c3ccc(N4CCCN(C)CC4)nc3n3c2sc2ccccc23)cn1,IC50,second compound 0.0316 µM,1880 nM
same,IC50,second compound 0.1 µM,1370 nM
same,IC50,second compound 0.316 µM,708 nM
same,IC50,second compound 1 µM,397 nM
same,IC50,second compound 3.16 µM,129 nM
same,IC50,second compound 10 µM,< 31.6 nM
same,"viability, T/C",[1],94.7%
same,"viability, T/C",[2],100%
same,"viability, T/C",[3],97.5%
same,"viability, T/C",[4],59%
same,"viability, T/C",[5],42.5%
same,"viability, T/C",[6],17.5%
same,"viability, T/C",[7],86.7%
same,"viability, T/C",[8],81.3%
same,"viability, T/C",[9],69.9%
same,"viability, T/C",[10],56.6%
same,"viability, T/C",[11],34.8%
same,"viability, T/C",[12],14.3%
same,"viability, T/C",[13],72.3%
same,"viability, T/C",[14],67%
same,"viability, T/C",[15],60.4%
same,"viability, T/C",[16],42.8%
same,"viability, T/C",[17],32.3%
same,"viability, T/C",[18],7.31%
same,"viability, T/C",[19],55.5%
same,"viability, T/C",[20],61.1%
same,"viability, T/C",[21],55.8%
same,"viability, T/C",[22],34.9%
same,"viability, T/C",[23],23.5%
same,"viability, T/C",[24],6.14%
same,"viability, T/C",[25],57.2%
same,"viability, T/C",[26],49.1%
same,"viability, T/C",[27],45.6%
same,"viability, T/C",[28],34.2%
same,"viability, T/C",[29],26.6%
same,"viability, T/C",[30],5.25%
same,"viability, T/C",[31],46.4%
same,"viability, T/C",[32],42.2%
same,"viability, T/C",[33],45%
same,"viability, T/C",[34],34.5%
same,"viability, T/C",[35],22.2%
same,"viability, T/C",[36],4.67%
C=CCn1c(=O)c2cnc(Nc3ccc(N4CCN(C)CC4)cc3)nc2n1-c1cccc(C(C)(C)O)n1 + CN(C)c1ccc(Nc2c3ccc(NC(=O)CCN4CCCC4)cc3nc3cc(NC(=O)CCN4CCCC4)ccc23)cc1,IC50,second compound 0.0316 µM,174 nM
same,IC50,second compound 0.1 µM,175 nM
same,IC50,second compound 0.316 µM,200 nM
same,IC50,second compound 1 µM,189 nM
same,IC50,second compound 3.16 µM,179 nM
same,IC50,second compound 10 µM,184 nM
same,"viability, T/C",[1],107%
same,"viability, T/C",[2],81.7%
same,"viability, T/C",[3],15.5%
same,"viability, T/C",[4],10.1%
same,"viability, T/C",[5],9.78%
same,"viability, T/C",[6],13%
same,"viability, T/C",[7],106%
same,"viability, T/C",[8],83.8%
same,"viability, T/C",[9],14.5%
same,"viability, T/C",[10],8.74%
same,"viability, T/C",[11],8.46%
same,"viability, T/C",[12],11.9%
same,"viability, T/C",[13],96.8%
same,"viability, T/C",[14],94.4%
same,"viability, T/C",[15],20.9%
same,"viability, T/C",[16],8.7%
same,"viability, T/C",[17],9.7%
same,"viability, T/C",[18],12.2%
same,"viability, T/C",[19],93.1%
same,"viability, T/C",[20],99.1%
same,"viability, T/C",[21],13%
same,"viability, T/C",[22],9.53%
same,"viability, T/C",[23],9.39%
same,"viability, T/C",[24],12.5%
same,"viability, T/C",[25],110%
same,"viability, T/C",[26],85.3%
same,"viability, T/C",[27],15.4%
same,"viability, T/C",[28],10.1%
same,"viability, T/C",[29],9.74%
same,"viability, T/C",[30],14.9%
same,"viability, T/C",[31],101%
same,"viability, T/C",[32],88.6%
same,"viability, T/C",[33],16%
same,"viability, T/C",[34],10.1%
same,"viability, T/C",[35],8.2%
same,"viability, T/C",[36],12.7%
